Source: patent US20250129070A1, “BIFUNCTIONAL ANDROGEN RECEPTOR COMPOUNDS” (priority 2023, published 2025)

Legend:
AR / CBP ternary complex = experiment: Ternary complex formation assay (sandwich ELISA, AR capture / CBP detection) in VCaP cell lysates; type: cell-based; details: 1.5 hours treatment, sandwich ELISA (AR capture, CBP or p300 detection)
How it was run: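 VCaP cells (50K/well, 5% charcoal-stripped FBS, ≥3 days) treated with bifunctional compound for 1.5 h, then lysed 30 min at 4 °C. AR captured on anti-AR (AR 441) plates; bound CBP or p300 detected by rabbit mAb plus HRP secondary. QuantaRed chemifluorescence read at ex 570/em 585, immediately and at 5 and 15 min.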

VCaP cells = experiment: VCaP growth inhibition assay; type: cell-based; details: 30 pM R1881, 9 days, CTG
How it was run: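 VCaP cells in phenol red-free DMEM/5% CSS, pre-incubated 72 h, then stimulated with R1881 (final 30 pM) and treated with 1:5 serial dilutions (final 100 nM to 10 fM) for 9 days at 37 °C. Viability by CellTiter-Glo luminescence; IC50 from 4-parameter logistic fit of RLU vs concentration.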

CC(=O)N1CCc2c(c(-c3cccc4cc(-c5cnn(CCC6CC7(C6)CN(c6ncc(C(=O)NC8C(C)(C)C(Oc9ccc(C#N)c(Cl)c9)C8(C)C)cn6)C7)c5)ncc34)nn2C2CCOCC2)C1 (stereo not drawn) [Compound 225, 2-[6-[2-[4-[8-(5-acetyl-1-tetrahydropyran-4-yl-6,7-dihydro-4H-pyrazolo[4,3-c]pyridin-3-yl)-3-isoquinolyl]pyrazol-1-yl]ethyl]-2-azaspiro[3.3]heptan-2-yl]-N-[3-(3-chloro-4-cyano-phenoxy)-2,2,4,4-tetramethyl-cyclobutyl]pyrimidine-5-carboxamide]
EC50 (AR / CBP ternary complex): < 1 nM | IC50 (VCaP cells): 0.1 to 1 nM

COc1cc(OC2C(C)(C)C(NC(=O)c3ccc(N4CCC(CCc5ccc(-c6cc7cccc(-c8nn(C9CCOCC9)c9c8CN(C(C)=O)CC9)c7cn6)cc5)CC4)cc3)C2(C)C)ccc1C#N (stereo not drawn) [Compound 254, 4-[4-[2-[4-[8-(5-acetyl-1-tetrahydropyran-4-yl-6,7-dihydro-4H-pyrazolo[4,3-c]pyridin-3-yl)-3-isoquinolyl]phenyl]ethyl]-1-piperidyl]-N-[3-(4-cyano-3-methoxy-phenoxy)-2,2,4,4-tetramethyl-cyclobutyl]benzamide]
EC50 (AR / CBP ternary complex): < 1 nM | IC50 (VCaP cells): 0.1 to 1 nM

CC(=O)N1CCc2c(c(N3CCCc4cc(-c5cnn(C)c5)c(C(F)F)cc43)nn2C2CC3(C2)CN(CC2CC4(C2)CN(c2ncc(C(=O)NC5C(C)(C)C(Oc6ccc(C#N)c(Cl)c6)C5(C)C)cn2)C4)C3)C1 (stereo not drawn) [Compound 216, 2-[6-[[6-[5-acetyl-3-[7-(difluoromethyl)-6-(1-methylpyrazol-4-yl)-3,4-dihydro-2H-quinolin-1-yl]-6,7-dihydro-4H-pyrazolo[4,3-c]pyridin-1-yl]-2-azaspiro[3.3]heptan-2-yl]methyl]-2-azaspiro[3.3]heptan-2-yl]-N-[3-(3-chloro-4-cyano-phenoxy)-2,2,4,4-tetramethyl-cyclobutyl]pyrimidine-5-carboxamide]
EC50 (AR / CBP ternary complex): < 1 nM | IC50 (VCaP cells): ≤ 0.1 nM

COc1cc(OC2C(C)(C)C(NC(=O)c3ccc(N4CCC(CCn5cc(-c6cc7cccc(-c8nn(C9CCOCC9)c9c8CN(C(C)=O)CC9)c7cn6)cn5)CC4)cc3)C2(C)C)ccc1C#N (stereo not drawn) [Compound 244, 4-[4-[2-[4-[8-(5-acetyl-1-tetrahydropyran-4-yl-6,7-dihydro-4H-pyrazolo[4,3-c]pyridin-3-yl)-3-isoquinolyl]pyrazol-1-yl]ethyl]-1-piperidyl]-N-[3-(4-cyano-3-methoxy-phenoxy)-2,2,4,4-tetramethyl-cyclobutyl]benzamide]
EC50 (AR / CBP ternary complex): 1 to 10 nM | IC50 (VCaP cells): 0.1 to 1 nM

CC(=O)N1CCc2c(c(-c3cccc4cc(-c5ccc(C(=O)NCCc6ncc(C(=O)NC7C(C)(C)C(Oc8ccc(C#N)c(Cl)c8)C7(C)C)cn6)nc5)ncc34)nn2C2CCOCC2)C1 (stereo not drawn) [Compound 78, 2-[2-[[5-[8-(5-acetyl-1-tetrahydropyran-4-yl-6,7-dihydro-4H-pyrazolo[4,3-c]pyridin-3-yl)-3-isoquinolyl]pyridine-2-carbonyl]amino]ethyl]-N-[3-(3-chloro-4-cyano-phenoxy)-2,2,4,4-tetramethyl-cyclobutyl]pyrimidine-5-carboxamide]
EC50 (AR / CBP ternary complex): < 1 nM | IC50 (VCaP cells): 1 to 100 nM

COc1cc(OC2C(C)(C)C(NC(=O)c3ccc(N4CC(N5CCC(n6nc(N7CCCc8cc(-c9cnn(C)c9)c(C(F)F)cc87)c7c6CCN(C(C)=O)C7)CC5)C4)cc3)C2(C)C)ccc1C#N (stereo not drawn) [Compound 310, 4-[3-[4-[5-acetyl-3-[7-(difluoromethyl)-6-(1-methylpyrazol-4-yl)-3,4-dihydro-2H-quinolin-1-yl]-6,7-dihydro-4H-pyrazolo[4,3-c]pyridin-1-yl]-1-piperidyl]azetidin-1-yl]-N-[3-(4-cyano-3-methoxy-phenoxy)-2,2,4,4-tetramethyl-cyclobutyl]benzamide]
EC50 (AR / CBP ternary complex): < 1 nM | IC50 (VCaP cells): ≤ 0.1 nM

CC(=O)N1CCc2c(c(-c3cccc4cc(-c5ccc(CC6CC7(C6)CN(c6ncc(C(=O)NC8C(C)(C)C(Oc9ccc(C#N)c(Cl)c9)C8(C)C)cn6)C7)nc5)ncc34)nn2C)C1 (stereo not drawn) [Compound 230, 2-[6-[[5-[8-(5-acetyl-1-methyl-6,7-dihydro-4H-pyrazolo[4,3-c]pyridin-3-yl)-3-isoquinolyl]-2-pyridyl]methyl]-2-azaspiro[3.3]heptan-2-yl]-N-[3-(3-chloro-4-cyano-phenoxy)-2,2,4,4-tetramethyl-cyclobutyl]pyrimidine-5-carboxamide]
EC50 (AR / CBP ternary complex): 10 to 100 nM | IC50 (VCaP cells): 0.1 to 1 nM

COc1cc(OC2C(C)(C)C(NC(=O)c3ccc(N4CC[C@@H](N5CCC(n6nc(N7CCCc8cc(-c9cnn(C)c9)c(C(F)F)cc87)c7c6CCN(C(C)=O)C7)CC5)C4)cc3)C2(C)C)ccc1C#N (stereo partly drawn) [Compound 337, 4-[(3R)-3-[4-[5-acetyl-3-[7-(difluoromethyl)-6-(1-methylpyrazol-4-yl)-3,4-dihydro-2H-quinolin-1-yl]-6,7-dihydro-4H-pyrazolo[4,3-c]pyridin-1-yl]-1-piperidyl]pyrrolidin-1-yl]-N-[3-(4-cyano-3-methoxy-phenoxy)-2,2,4,4-tetramethyl-cyclobutyl]benzamide]
EC50 (AR / CBP ternary complex): < 1 nM | IC50 (VCaP cells): 0.1 to 1 nM

CC(=O)N1CCc2c(c(-c3cccc4cc(-c5ccc(CCC6CC7(C6)CN(c6ncc(C(=O)NC8C(C)(C)C(Oc9ccc(C#N)c(Cl)c9)C8(C)C)cn6)C7)nc5)ncc34)nn2C)C1 (stereo not drawn) [Compound 229, 2-[6-[2-[5-[8-(5-acetyl-1-methyl-6,7-dihydro-4H-pyrazolo[4,3-c]pyridin-3-yl)-3-isoquinolyl]-2-pyridyl]ethyl]-2-azaspiro[3.3]heptan-2-yl]-N-[3-(3-chloro-4-cyano-phenoxy)-2,2,4,4-tetramethyl-cyclobutyl]pyrimidine-5-carboxamide]
EC50 (AR / CBP ternary complex): 1 to 10 nM | IC50 (VCaP cells): 0.1 to 1 nM

COc1cc(OC2C(C)(C)C(NC(=O)c3ccc(N4CCN(C5CN(c6ccc(-c7cc8c(cn7)N(c7nn(C9CCOCC9)c9c7CN(C(C)=O)CC9)CCC8)cn6)C5)CC4)cc3)C2(C)C)ccc1C#N (stereo not drawn) [Compound 324, 4-[4-[1-[5-[1-(5-acetyl-1-tetrahydropyran-4-yl-6,7-dihydro-4H-pyrazolo[4,3-c]pyridin-3-yl)-3,4-dihydro-2H-1,7-naphthyridin-6-yl]-2-pyridyl]azetidin-3-yl]piperazin-1-yl]-N-[3-(4-cyano-3-methoxy-phenoxy)-2,2,4,4-tetramethyl-cyclobutyl]benzamide]
EC50 (AR / CBP ternary complex): < 1 nM | IC50 (VCaP cells): ≤ 0.1 nM

C[C@@H]1CC(=O)Nc2cccc(-c3ccc4c(c3)c(-c3cnn(C)c3)nn4C3CCN(c4ncc(C(=O)NC5C(C)(C)C(Oc6ccc(C#N)c(Cl)c6)C5(C)C)cn4)CC3)c2N1 (stereo partly drawn) [Compound 60, N-[3-(3-chloro-4-cyano-phenoxy)-2,2,4,4-tetramethyl-cyclobutyl]-2-[4-[5-[(4R)-4-methyl-2-oxo-1,3,4,5-tetrahydro-1,5-benzodiazepin-6-yl]-3-(1-methylpyrazol-4-yl)indazol-1-yl]-1-piperidyl]pyrimidine-5-carboxamide]
EC50 (AR / CBP ternary complex): > 100 nM | IC50 (VCaP cells): > 100 nM

CC(=O)N1CCc2c(c(-c3cccc4cc(-c5cnn(CC6CC7(C6)CN(c6ncc(C(=O)NC8C(C)(C)C(Oc9ccc(C#N)c(Cl)c9)C8(C)C)cn6)C7)c5)ncc34)nn2C2CCOCC2)C1 (stereo not drawn) [Compound 223, 2-[6-[[4-[8-(5-acetyl-1-tetrahydropyran-4-yl-6,7-dihydro-4H-pyrazolo[4,3-c]pyridin-3-yl)-3-isoquinolyl]pyrazol-1-yl]methyl]-2-azaspiro[3.3]heptan-2-yl]-N-[3-(3-chloro-4-cyano-phenoxy)-2,2,4,4-tetramethyl-cyclobutyl]pyrimidine-5-carboxamide]
EC50 (AR / CBP ternary complex): < 1 nM | IC50 (VCaP cells): ≤ 0.1 nM

CC(=O)N1CCc2c(c(N3CCCc4ccc(C(F)F)cc43)nn2C2CCN(C(=O)C3CCN(c4ncc(C(=O)NC5C(C)(C)C(Oc6ccc(C#N)c(Cl)c6)C5(C)C)cn4)CC3)CC2)C1 (stereo not drawn) [Compound 122, 2-[4-[4-[5-acetyl-3-[7-(difluoromethyl)-3,4-dihydro-2H-quinolin-1-yl]-6,7-dihydro-4H-pyrazolo[4,3-c]pyridin-1-yl]piperidine-1-carbonyl]-1-piperidyl]-N-[3-(3-chloro-4-cyano-phenoxy)-2,2,4,4-tetramethyl-cyclobutyl]pyrimidine-5-carboxamide]
EC50 (AR / CBP ternary complex): < 1 nM | IC50 (VCaP cells): ≤ 0.1 nM

CC(=O)N1CCc2c(c(Nc3ccc(-c4cnn(C)c4)cc3F)nn2CCOCCN2CCN(c3ncc(C(=O)NC4C(C)(C)C(Oc5ccc(C#N)c(Cl)c5)C4(C)C)cn3)CC2)C1 (stereo not drawn) [Compound 1, 2-[4-[2-[2-[5-acetyl-3-[2-fluoro-4-(1-methylpyrazol-4-yl)anilino]-6,7-dihydro-4H-pyrazolo[4,3-c]pyridin-1-yl]ethoxy]ethyl]piperazin-1-yl]-N-[3-(3-chloro-4-cyano-phenoxy)-2,2,4,4-tetramethyl-cyclobutyl]pyrimidine-5-carboxamide]
EC50 (AR / CBP ternary complex): < 1 nM | IC50 (VCaP cells): 0.1 to 1 nM

CC(=O)N1CCc2c(c(-c3cccc4cc(-c5cnn(C)c5)ncc34)nn2C2CCN(CC3CCN(c4ncc(C(=O)NC5C(C)(C)C(Oc6ccc(C#N)c(Cl)c6)C5(C)C)cn4)CC3)CC2)C1 (stereo not drawn) [Compound 136, 2-[4-[[4-[5-acetyl-3-[3-(1-methylpyrazol-4-yl)-8-isoquinolyl]-6,7-dihydro-4H-pyrazolo[4,3-c]pyridin-1-yl]-1-piperidyl]methyl]-1-piperidyl]-N-[3-(3-chloro-4-cyano-phenoxy)-2,2,4,4-tetramethyl-cyclobutyl]pyrimidine-5-carboxamide]
EC50 (AR / CBP ternary complex): < 1 nM | IC50 (VCaP cells): ≤ 0.1 nM
